Key:
[1] = test system: histamine-induced bronchospasm and blood pressure; experiment: Broncho-relaxant activity in the anaesthetised guinea pig (method of Dixon and Brodie); type: in vivo; conditions: nebulised aerosol of 200µg/ml aqueous solution for 1 minute; for Broncho-relaxant % maximum bronchospasm: histamine-induced bronchospasm
Experimental: In in vivo tests in the anaesthetised guinea pig, performed according to the method of Dixon W.E. and Brodie T.G., J. Physiol 29, 97-173 (1903), the effect on histamine-induced bronchospasm and blood pressure was determined.
A nebulised aerosol generated from an aqueous solution , having a concentration of 200µg/ml was administered for 1 minute to the anaesthetised guinea pigs.

Thoracic aorta = experiment: Vaso-relaxant activity: relaxation of K+-induced contraction of rat thoracic aorta strips; parameters: species or system rats; conditions: rat thoracic aorta strips denuded of endothelium, contraction induced by 20mM K⁺, cumulative concentration; read-out: Vaso-relaxant EC₉₀
Experimental: The test methods used were adapted from those described by Winslow et al [Eur. J. Pharmacol., 131, 219-228 (1986)] and Karaki [J. Pharmacol Methods, 18, 1-21, (1987)] for differentiating vaso-relaxant activity.
Thoracic aorta was removed from rats and transverse strips, denuded of endothelium, were suspended in a bath containing Krebs solution. The tension was recorded and a contraction induced by addition of 20mM K⁺ (potassium ion) to the bathing solution. The test compound was added to the bath as a solution in increasing cumulative concentration. The concentration in the bathing solution of the test compound which reduced the K⁺-induced contraction was determined and expressed in nM as the effective concentration (EC₉₀)

mean blood pressure = experiment: Hypotensive activity in the anaesthetised rat; type: in vivo; conditions: intravenous dose required to reduce the mean blood pressure
Experimental: The intravenous dose required to reduce the mean blood pressure in an anaesthetised rat was determined and expressed in µg/kg/min as the effective concentration (EC₃₀).

| EC90 (Thoracic aorta) [nM] | SMILES | Broncho-relaxant % maximum bronchospasm [1] [%] | Broncho-relaxant B.P. [1] [mmHg] | Hypotensive EC₃₀ (mean blood pressure) [µg/kg/min] |
| --- | --- | --- | --- | --- |
| 1 | CNC(=S)[C@]1(c2cccnc2)CCCC/C1=N\OCc1c(F)c(F)c(F)c(F)c1F [Compound 1, (1S)-anti-N-methyl-2-(2,3,4,5,6-pentafluorobenzyloxyimino)-1-(pyrid-3-yl)cyclohexanecarbothioamide] | 28 | 40 | 0.9 |
| 0.3 | CNC(=S)[C@]1(c2cccnc2)CCCC/C1=N\OCc1ccc(F)c(F)c1 [Compound 2, (1S)-anti-N-methyl-2-(3,4-difluorobenzyloxyimino)-1-(pyrid-3-yl)cyclohexanecarbothioamide] | 17 | 32 | 0.5 |
